Each block holds one molecule with its values, some of them ahead of it.
What was measured:
[1] = system: amylase activity of DXAMase; test: Stability test: amylase activity of DXAMase in presence of enzyme inhibitors and mouthwash chemicals; type: biochemical, Lipomyces starkeyi KSM 22
Method: Amylase activity is measured by reacting the enzyme solution in a buffer solution containing 2% starch for 15 min at 37° C.
(§1) To test the stabilization of dextranase and amylase activities of DXAMase by chemicals comprising mouthwash solution, the enzyme activity was measured in the presence of the enzyme inhibitors and chemicals in the mouthwash solutions in Table 2. In 1 mL of each chemical solution, 5 IU of DXAMase was added and reacted for 5 min at 37° C. Reaction was further carried out by adding 2% dextran or starch of an equal volume.

[2] = system: dextranase activity of DXAMase; test: Stability test: dextranase activity of DXAMase in presence of enzyme inhibitors and mouthwash chemicals; type: biochemical, Lipomyces starkeyi KSM 22
Method: Dextranase activity is determined by measuring the amount of isomaltose produced by the reaction of an enzyme solution in a buffer solution containing 2% dextran for 15 min at 37° C. Dextranase 1 IU is defined as the amount of the enzyme that produces 1 μmol of isomaltose when reaction is carried out by using dextran as a substrate for 1 min at 37° C.
as §1

[3] = inhibitor concentration 10 mM, 5 IU DXAMase, 5 min at 37° C.

SMILES: O=C([O-])c1ccccc1.[Na+] [Sodium benzoate]
Relative activity (%) Amylase ([1]; inhibitor concentration 1%): 100% | Relative activity (%) Dextranase ([2]; inhibitor concentration 1%): 100%

Relative activity (%) Amylase ([1]; inhibitor concentration 1%): 100% | Relative activity (%) Dextranase ([2]; inhibitor concentration 1%): 100%
SMILES: CC(O)CO (centres unmarked) [Propylene glycol]

Relative activity (%) Amylase ([1]; inhibitor concentration 0.05%): 92% | Relative activity (%) Amylase ([1]; inhibitor concentration 0.5%): 68% | Relative activity (%) Dextranase ([2]; inhibitor concentration 0.05%): 91% | Relative activity (%) Dextranase ([2]; inhibitor concentration 0.5%): 85%
SMILES: CCCCCCCCCCCCOS(=O)(=O)[O-].[Na+] [SDS]

Relative activity (%) Amylase ([1]; inhibitor concentration 0.05%): 91% | Relative activity (%) Dextranase ([2]; inhibitor concentration 0.05%): 94%
SMILES: F [Fluoride]

Relative activity (%) Amylase ([1]; inhibitor concentration 1%): 100% | Relative activity (%) Amylase ([1]; inhibitor concentration 5%): 98% | Relative activity (%) Amylase ([1]; inhibitor concentration 10%): 97% | Relative activity (%) Amylase ([1]; inhibitor concentration 20%): 97% | Relative activity (%) Dextranase ([2]; inhibitor concentration 1%): 99% | Relative activity (%) Dextranase ([2]; inhibitor concentration 5%): 98% | Relative activity (%) Dextranase ([2]; inhibitor concentration 10%): 98% | Relative activity (%) Dextranase ([2]; inhibitor concentration 20%): 97%
SMILES: CCO [Ethanol]

Relative activity (%) Amylase [1, 3]: 100% | Relative activity (%) Dextranase [2, 3]: 100%
SMILES: O=C(O)CN(CCN(CC(=O)O)CC(=O)O)CC(=O)O [EDTA]

Relative activity (%) Amylase ([1]; inhibitor concentration 0.01%): 98% | Relative activity (%) Amylase ([1]; inhibitor concentration 0.02%): 97% | Relative activity (%) Amylase ([1]; inhibitor concentration 0.05%): 97% | Relative activity (%) Amylase ([1]; inhibitor concentration 0.1%): 96% | effect on enzymatic activity of DXAMase (dextranase and amylase), in words ([2]; 5 IU DXAMase in 1 mL chemical solution, 5 min at 37° C.): did not decrease | Relative activity (%) Dextranase ([2]; inhibitor concentration 0.01%): 98% | Relative activity (%) Dextranase ([2]; inhibitor concentration 0.02%): 98% | Relative activity (%) Dextranase ([2]; inhibitor concentration 0.05%): 97% | Relative activity (%) Dextranase ([2]; inhibitor concentration 0.1%): 93%
SMILES: [H]/N=C(\N/C(=N/[H])NCCCCCCNC(=N)NC(=N)Nc1ccc(Cl)cc1)Nc1ccc(Cl)cc1 [Chlorhexydine]

From patent US6485953B1, “Enzyme capable of hydorlyzing plaque, microorganism producing the same, and a composition comprising the same” (Lifenza Co. Ltd., priority 1999, dated 2002)
